Test in all cases: NCI tumour cell line growth inhibition, 48 h
In test [1] the test system is PC-3 prostate.
Test [2] concerns MALME-3M melanoma.
The subject of test [3] is HL-60(TB) leukemia.
The test system of test [4] is MOLT-4 leukemia.
Test [5] concerns LOX IMVI melanoma.
Test [6] relates to 786-0 renal.
In test [7] the test system is SK-MEL-28 melanoma.
Test [8] deals with MCF7 breast.
Test [9] deals with SNB-78 CNS.

Values joined by “and” are separate entries in the source; they are usually repeats but may differ in a detail not shown here. Identical values can stand only once.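 Exposure lasted 48 hours, with cells grown in 96-well plates and compounds tested at five concentrations. GI50 is the concentration that inhibits growth by half. TGI marks complete inhibition of growth.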

As for `O=C1OC2C(O)C(=O)OC2C1O` (stereo not drawn), the TGI in test [1], in [2], in test [3], in test [4], in [5] and in test [6] was greater than 100 µM in each case. Also, the TGI in test [7] and in test [8] was greater than 100 µM each time.

`COc1ccc(/C=C/C(=O)c2ccc(Nc3ccnc4cc(Cl)ccc34)cc2)cc1`: the GI50 in test [1] was greater than 100 µM; in test [2] it was greater than 100 µM; in test [4] it was 4.35 µM; in test [5], greater than 100 µM; in [6] it was greater than 100 µM; in [7], greater than 100 µM. The GI50 in [8] was 2.85 µM. Also, the TGI in test [1] was greater than 100 µM; in test [2], greater than 100 µM; in test [3], greater than 35 µM; in test [4], greater than 48.4 µM; in test [5], greater than 100 µM; in test [6], greater than 100 µM. Moreover, the TGI was greater than 100 µM in test [7] and greater than 42.3 µM in test [8].

On to `C=C(CN1CCN(c2cccc(F)c2)CC1)c1ccc(C(=O)Nc2ccccc2N)cc1`, for which the GI50 in test [1] was 0.689 µM; in test [2], 1.83 µM; in test [3], 0.357 µM; in test [4] it was 0.315 µM; in [5] it was 1.67 µM; in test [6], 1.84 µM. The results for the GI50 in test [7] and in test [8] were 0.676 µM and 0.691 µM, respectively. Also, the TGI in test [1] came to 4.03 µM; in test [2] it was 68 µM; in [3], 2.26 µM; in test [4] it was 2.76 µM; in [5], 13.1 µM; in [6], 13 µM. Further, the TGI is 38.6 µM in [7] and greater than 100 µM in [8].

For the compound `CC([O-])C(=O)[O-].NCC1CCC1CN.[Pt+4]` (stereo not drawn), the GI50 was greater than 10 µM in test [1]; greater than 10 µM in [2]; greater than 10 µM in [3]; 8.71 µM in [4]; greater than 10 µM in test [5]; greater than 10 µM in [6]. Further, the GI50 in test [7] is greater than 10 µM; in [8], 6.89 µM. Also, the TGI in test [1], in test [2], in test [3], in test [4], in [5] and in test [6] was greater than 10 µM in each case. Further, the TGI in [7] and in [8] was greater than 10 µM each time.

`COc1ccc(-c2nocc2-c2cc(OC)c(OC)c(OC)c2)cc1`: the GI50 is 0.0536 µM in test [1]; 21.6 µM in test [2]; 0.0387 µM in [3]; 0.3 µM in [4]; 0.212 µM in test [5]; 0.109 µM in test [6]. Moreover, the values for the GI50 in [7] and in test [8] were 6.9 µM and 0.0387 µM, respectively. The TGI in test [1] is 37.6 µM; in test [2], 60.7 µM; in test [3], 0.886 µM; in test [4], greater than 100 µM; in test [5] it was greater than 74.5 µM; in [6], 31.6 µM. The TGI in test [7] is greater than 89.9 µM; in [8], greater than 100 µM.

For the compound `Cc1ccc(NC(=O)c2nc(S(C)=O)oc2-c2ccc(F)cc2)cc1Nc1nccc(-c2cccnc2)n1` (stereo not drawn), the GI50 was 2.25 µM in test [1]; 1.34 µM in test [2]; 3.06 µM in [3]; 2.17 µM in [4]; 1.22 µM in test [5]; 2 µM in test [6]. Also, the GI50 in test [7] is 1.95 µM; in test [8] it was 1.87 µM. In addition, the TGI amounted to 4.85 µM in test [1]; 2.89 µM in [2]; 10.9 µM in test [3]; 6.82 µM in test [4]; 2.65 µM in test [5]; 3.55 µM in test [6]. Besides, the TGI came to 3.97 µM in test [7] and 3.86 µM in test [8].

On to `CC(=O)c1ccc(NCN2C(=O)c3ccccc3C2=O)cc1`, for which the TGI in [1], in test [2], in test [3], in test [4], in [5] and in test [6] was greater than 100 µM each time. In addition, the TGI in test [7] and in test [8] was greater than 100 µM throughout.

For `CC(=O)OCC1OC(n2c(-c3ccccc3)c(C)c(C)c(C#N)c2=S)C(OC(C)=O)C(OC(C)=O)C1OC(C)=O` (stereo not drawn), the TGI in [1] was greater than 100 µM; in [2], greater than 100 µM; in test [3], greater than 100 µM; in test [4] it was greater than 100 µM; in test [5], greater than 100 µM; in test [6], 19.3 µM and 56.1 µM. In addition, the TGI in test [7] and in test [8] was greater than 100 µM each time. Moreover, the GI50 is 14.1 µM and > 100 µM in test [5]; 6.84 µM and 23.2 µM in [6].

On to `Cc1ccccc1/C=C1\CN(C(=O)OC(C)(C)C)C/C(=C\c2ccccc2C)C1=O`, for which the GI50 is 2.5 µM in [1]; 1.81 µM in [2]; 2.47 µM in [3]; 2.9 µM in test [4]; 1.88 µM in test [5]; 1.84 µM in test [6]. Moreover, the GI50 in test [7] is 2.8 µM; in [8], 2.21 µM. For the same compound, the TGI is 7.69 µM in test [1]; 3.6 µM in test [2]; 8.8 µM in test [3]; 21.8 µM in [4]; 3.6 µM in [5]; 3.52 µM in [6]. The values for the TGI in [7] and in [8] were 6.43 µM and greater than 100 µM, respectively.

As to `COc1ccc(Cn2c(Br)c3c(c2-c2cc(OC)c(OC)c(OC)c2)CCc2sc(NC(C)=O)nc2-3)cc1`, the GI50 in test [1] was 3.44 µM; in [2], 12.7 µM; in test [3], 3.27 µM; in test [4] it was 4.37 µM; in test [5], 4.45 µM; in test [6], 4.2 µM. In addition, the GI50 in test [7] is 5.09 µM; in [8], 3.32 µM. For the same compound, the TGI is greater than 100 µM in [1]; 83.4 µM in [2]; 8.06 µM in test [3]; greater than 100 µM in [4]; 42.8 µM in test [5]; greater than 100 µM in [6]. Besides, the TGI in test [7] and in test [8] was greater than 100 µM each time.

For the compound `CC(O[Si](C)(C)C)C1C=CC(C)n2c(=O)n(-c3ccccc3)c(=O)n21` (stereo not drawn), the TGI in test [2], in test [3], in [9], in test [4], in test [6] and in [7] was greater than 100 µM each time.

The values above are taken from PubChem BioAssay (NCI).
